Marks after values point to notes of the source that are not given here.

The nature of one data set: Measurement of logP values by HPLC on reversed phase columns (EEC directive 79/831 Annex V.A8). It is filed as physicochemical. Conditions: pH 2.3.
In the case of `CCCN(CCC#N)C(=O)c1cc(-c2ncnc(Nc3cccc(Cl)c3)n2)ccn1` [B182], the “logP [b]” value was 3.13[b].

The same data set, now with this note: pH 2.7.
For `O=C(c1cc(-c2ncnc(Nc3cccc(Cl)c3)n2)ccn1)N1CCC(O)C1` (centres unmarked) [B177], the logP came out at 2.07.
Consider `O=CNCCCNC(=O)c1cc(-c2ncnc(Nc3cccc(Cl)c3)n2)ccn1` [B178], for which the logP is recorded as 2.26.
The compound `O=C(c1cc(-c2ncnc(Nc3ccc(F)c(Cl)c3)n2)ccn1)N1CCCC1` [B190] came in with a logP of 3.
The compound `COCC(C)NC(=O)c1cc(-c2ncnc(Nc3ccc(F)c(Cl)c3)n2)ccn1` (centres unmarked) [B191] came in with a log partition coefficient (logP) of 3.48.
`COCCNC(=O)c1cc(-c2ncnc(Nc3ccc(F)c(Cl)c3)n2)ccn1` [B193]: the logP came to 3.08.
Compound `CC(C)NC(=O)c1cc(-c2ncnc(Nc3ccc(F)c(Cl)c3)n2)ccn1` [B196] returned a logP of 3.73.
`O=C(NCC1CC1)c1cc(-c2ncnc(Nc3ccc(F)c(Cl)c3)n2)ccn1` [B198] returned a logP of 3.83.
For the compound `O=C(NC1CCC1)c1cc(-c2ncnc(Nc3ccc(F)c(Cl)c3)n2)ccn1` [B199], the logP turned out to be 3.94. The logP values of the last two compounds are within 0.2 log units of each other.
For the compound `CCCC(C)NC(=O)c1cc(-c2ncnc(Nc3ccc(F)c(Cl)c3)n2)ccn1` (centres unmarked) [B200], the logP was determined as 4.64.
Compound `CC(C)N(C)C(=O)c1cc(-c2ncnc(Nc3ccc(F)c(Cl)c3)n2)ccn1` [B208] showed a log partition coefficient (logP) of 3.02.
Turning to `COCC(C1CC1)N(C)C(=O)c1cc(-c2ncnc(Nc3ccc(F)c(Cl)c3)n2)ccn1` (centres unmarked) [B210], the logP was determined as 3.33.
For `CSc1cccc(Nc2ncnc(-c3ccnc(C(=O)N4CCCC4)c3)n2)c1` [B211], the logP is listed as 2.82.
In turn, `COCC(C)NC(=O)c1cc(-c2ncnc(Nc3cccc(SC)c3)n2)ccn1` (centres unmarked) [B212] returned a log partition coefficient (logP) of 3.31.
`CSc1cccc(Nc2ncnc(-c3ccnc(C(=O)NC4CC4)c3)n2)c1` [B213] had a logP of 3.15. The logP values of the last two compounds are within 0.2 log units of each other.
For `COCCNC(=O)c1cc(-c2ncnc(Nc3cccc(SC)c3)n2)ccn1` [B214], the logP came to 2.92.
`CSc1cccc(Nc2ncnc(-c3ccnc(C(=O)NCCCN4CCCCCC4=O)c3)n2)c1` [B215]: the logP was 3.02.
Compound `CCC(COC)NC(=O)c1cc(-c2ncnc(Nc3cccc(SC)c3)n2)ccn1` (centres unmarked) [B216] returned a logP of 3.69.
On the same count and under the same terms, in the case of `CSc1cccc(Nc2ncnc(-c3ccnc(C(=O)NC(C)C)c3)n2)c1` [B217] it was 3.53; in that of `CCC(C)NC(=O)c1cc(-c2ncnc(Nc3cccc(SC)c3)n2)ccn1` (centres unmarked) [B218], 3.94; in that of `CSc1cccc(Nc2ncnc(-c3ccnc(C(=O)NCC4CC4)c3)n2)c1` [B219], 3.64.
Same read-out and setting: in the case of `CSc1cccc(Nc2ncnc(-c3ccnc(C(=O)NC4CCC4)c3)n2)c1` [B220] it was 3.73.
For `CCCC(C)NC(=O)c1cc(-c2ncnc(Nc3cccc(SC)c3)n2)ccn1` (centres unmarked) [B221], the logP is on record as 4.44.
Consider `Cc1ccc(Nc2ncnc(-c3ccnc(C(=O)N4CCCC4)c3)n2)cc1Cl` [B224], for which the lipophilicity (logP) was 3.26.
`Cc1ccc(Nc2ncnc(-c3ccnc(C(=O)NCCCN4CCCCCC4=O)c3)n2)cc1Cl` [B228] showed a logP of 3.44.
On the same count and under the same terms, in the case of `CCC(COC)NC(=O)c1cc(-c2ncnc(Nc3ccc(C)c(Cl)c3)n2)ccn1` (centres unmarked) [B229] it was 4.24; in that of `Cc1ccc(Nc2ncnc(-c3ccnc(C(=O)NC(C)C)c3)n2)cc1Cl` [B230], 4.04; in that of `CCNC(=O)c1cc(-c2ncnc(Nc3ccc(C)c(Cl)c3)n2)ccn1` [B231], 3.55.
As to `CCC(C)NC(=O)c1cc(-c2ncnc(Nc3ccc(C)c(Cl)c3)n2)ccn1` (centres unmarked) [B232], the logP was determined as 4.49.
Take `Cc1ccc(Nc2ncnc(-c3ccnc(C(=O)NCC4CC4)c3)n2)cc1Cl` [B233]: the logP came to 4.16.
The compound `Cc1ccc(Nc2ncnc(-c3ccnc(C(=O)NC4CCC4)c3)n2)cc1Cl` [B234] came in with a logP of 4.29.
Consider `CCCC(C)NC(=O)c1cc(-c2ncnc(Nc3ccc(C)c(Cl)c3)n2)ccn1` (centres unmarked) [B235], for which the logP was 5.
`COCc1cccc(Nc2ncnc(-c3ccnc(C(=O)N(C)C(COC)C4CC4)c3)n2)c1` (centres unmarked) [B251] returned a logP of 2.69.
Regarding `CC(C)N(C)C(=O)c1cc(-c2ncnc(Nc3cccc(OC(F)(F)F)c3)n2)ccn1` [B269], the logP is 3.29.
`CC(=O)Nc1cccc(Nc2ncnc(-c3ccnc(C(=O)N(C)CCC#N)c3)n2)c1` [B304] registered a logP of 2.08.
Same read-out and setting: as for `CC(=O)Nc1cccc(Nc2ncnc(-c3ccnc(C(=O)N(C)CC4CC4)c3)n2)c1` [B306], the figure is 1.94; as for `CC(=O)Nc1cccc(Nc2ncnc(-c3ccnc(C(=O)N(C)C(C)C)c3)n2)c1` [B309], 1.81.
On the same count and under the same terms, as for `NC(=S)c1cc(-c2ncnc(Nc3cccc(C(F)F)c3)n2)ccn1` [B320], the figure is 3.05.
In turn, `NC(=S)c1cc(-c2ncnc(Nc3cccc(F)c3)n2)ccn1` [B321] returned a logP of 2.57.
In turn, `NC(=S)c1cc(-c2ncnc(Nc3ccc(F)cc3)n2)ccn1` [B322] displayed a logP of 2.47.
On to `CCCNC(=O)c1cc(-c2ncnc(Nc3cccc(F)c3)n2)ccn1` [B323], for which the logP is recorded as 3.17.
Take `NC(=O)c1cc(-c2ncnc(Nc3cccc(F)c3)n2)ccn1` [B324]: the logP is 2.09.
`C=CCNC(=O)c1cc(-c2ncnc(Nc3cccc(F)c3)n2)ccn1` [B325] yielded a logP of 3.08.
`C#CCN(c1cccc(F)c1)c1ncnc(-c2ccnc(C(=S)N(C)CC)c2)n1` [B345] returned a logP of 3.25.
The compound `CCN(CC)C(=O)c1cc(-c2ncnc(Nc3ccc(F)c(F)c3)n2)ccn1` [B351] returned a logP of 2.88.
As for `CC(C)N(C)C(=O)c1cc(-c2ncnc(Nc3cccc(C(F)(F)F)c3)n2)ccn1` [B360], the logP worked out at 3.15.
As to `C#CCN(c1cccc(Cl)c1)c1ncnc(-c2ccnc(C(=O)N(C)CCC#N)c2)n1` [B403], the lipophilicity (logP) is recorded as 2.77.
Compound `O=C(O)c1cc(-c2ncnc(Nc3cccc(Cl)c3)n2)ccn1` [B404] gave a logP of 2.11.
As to `COC(=O)c1cc(-c2ncnc(Nc3cccc(C(F)F)c3)n2)ccn1` [B406], the logP was found to be 2.55.
On the same count and under the same terms, as for `O=C(O)c1cc(-c2ncnc(Nc3cccc(C(F)F)c3)n2)ccn1` [B407], the figure is 1.98.
In turn, `CCN(C)C(=O)c1cc(-c2ncnc(Nc3cccc(OC(F)F)c3)n2)ccn1` [B409] came in with a logP of 2.57.
`CN(CC1CC1)C(=O)c1cc(-c2ncnc(Nc3cccc(OC(F)F)c3)n2)ccn1` [B410]: the logP came to 2.98.
Regarding `CN(CC1CC1)C(=O)c1cc(-c2ncnc(Nc3ccc(F)c(C(F)F)c3)n2)ccn1` [B411], the logP was determined as 2.98.
Same read-out and setting: as for `CON(C)C(=O)c1cc(-c2ncnc(Nc3cccc(C(F)F)c3)n2)ccn1` [B412], the figure is 2.34; as for `CCN(OC)C(=O)c1cc(-c2ncnc(Nc3cccc(C(F)F)c3)n2)ccn1` [B413], 2.64.
In turn, `CCON(CC)C(=O)c1cc(-c2ncnc(Nc3cccc(C(F)F)c3)n2)ccn1` [B414] had a log partition coefficient (logP) of 2.88.
Regarding `CCON(C)C(=O)c1cc(-c2ncnc(Nc3cccc(C(F)F)c3)n2)ccn1` [B415], the logP was determined as 2.57.
The compound `COC(=O)c1cc(-c2ncnc(Nc3ccc(F)c(OC)c3)n2)ccn1` [B416] yielded a logP of 2.43.
`COC(=O)c1cc(-c2ncnc(Nc3ccc(Cl)c(OC)c3)n2)ccn1` [B417] returned a logP of 2.80.
As to `COC(=O)c1cc(-c2ncnc(Nc3ccc(OC)c(F)c3)n2)ccn1` [B418], the logP came out at 2.37.
In turn, `COC(=O)c1cc(-c2ncnc(Nc3ccc(C)c(Cl)c3)n2)ccn1` [B419] displayed a logP of 3.17.
`C#CCN(CC)C(=O)c1cc(-c2ncnc(Nc3cccc(C(F)F)c3)n2)ccn1` [B420] returned a logP of 2.86.
With `COC(=O)c1cc(-c2ncnc(Nc3ccc(Br)c(OC)c3)n2)ccn1` [B421], the logP came to 2.90.
As to `CN(C)C(=S)c1cc(-c2ncnc(Nc3cccc(C(F)F)c3)n2)ccn1` [B423], the logP is reported as 2.66.
Regarding `CCN(C)C(=S)c1cc(-c2ncnc(Nc3cccc(OC(F)F)c3)n2)ccn1` [B424], the logP was determined as 3.06.
Regarding `CCOC(=O)c1cc(-c2ccnc(Nc3ccc(OC)nc3)n2)ccn1` [Example A1, ethyl 4-{2-[(6-methoxypyridin-3-yl)amino]-pyrimidin-4-yl}pyridine-2-carboxylate], the chromatographic logP was found to be 1.1.
As for `O=C(c1cc(-c2ccnc(Nc3ccnc(Cl)c3)n2)ccn1)N1CC=CCC1` [Example A2], the logP is 2.2.
For `O=C(c1cc(Nc2nccc(-c3ccnc(C(=O)N4CC=CCC4)c3)n2)ccn1)N1CC=CCC1` [Example A3], the logP came out at 1.6.
The compound `COCCN(C)C(=O)c1cc(Nc2nccc(-c3ccnc(C(=O)N(C)CCOC)c3)n2)ccn1` [Example A4] gave a lipophilicity (logP) of 1.1.
For `O=C(c1cc(-c2ccnc(Nc3ccnc(Cl)c3)n2)ccn1)N1CCCCC1` [Example A5], the logP is 2.23.
`O=C(c1cc(Nc2nccc(-c3ccnc(C(=O)N4CCCCC4)c3)n2)ccn1)N1CCCCC1` [Example A6] gave a lipophilicity (logP) of 1.63.
The same measure, in the same setting: as for `O=C(c1cc(-c2ccnc(Nc3ccnc(Cl)c3)n2)ccn1)N1CCCC1` [Example A7], the figure is 2.08; as for `O=C(c1cc(Nc2nccc(-c3ccnc(C(=O)N4CCCC4)c3)n2)ccn1)N1CCCC1` [Example A8], 1.37.
Consider `O=C(c1cc(-c2ccnc(Nc3ccnc(Cl)c3)n2)ccn1)N1CCCC(CO)C1` (centres unmarked) [Example A9], for which the logP was 1.69.
`CCCN(CCO)C(=O)c1cc(-c2ccnc(Nc3ccnc(Cl)c3)n2)ccn1` [Example A10] came in with a log partition coefficient (logP) of 1.84.
As for `CCCN(CCC)C(=O)c1cc(Nc2nccc(-c3ccnc(C(=O)N(CCC)CCC)c3)n2)ccn1` [Example A12], the logP was 2.54.
Turning to `CCCN(C)C(=O)c1cc(-c2ccnc(Nc3ccnc(Cl)c3)n2)ccn1` [Example A13], the logP is 2.2.

The same data set, now with this note: pH 7.8.
For `NC(=O)c1cc(-c2ncnc(Nc3cccc(C(F)F)c3)n2)ccn1` [B405], the logP was 2.04^[c].
Same read-out and setting: as for `COC(=O)c1cc(-c2ncnc(Nc3ccc(OC)c(OC)c3)n2)ccn1` [B422], the figure is 2.02^[c]; as for `CCCN(CCC)C(=O)c1cc(-c2ccnc(Nc3ccnc(Cl)c3)n2)ccn1` [Example A11], 2.88^[c].
